Reference: patent US10472420B2, “Immune response modifier conjugates” (3M INNOVATIVE PROPERTIES COMPANY, priority 2006, dated 2019)

SMILES | melting point [°C]
CCOCc1nc2c(N)nc3cc(OCCCCCCNC(=O)CCS)ccc3c2n1CC(C)(C)NS(C)(=O)=O [IRM10, N-{6-[(4-Amino-2-(ethoxymethyl)-1-{2-methyl-2-[(methylsulfonyl)amino]propyl}-1H-imidazo[4,5-c]quinolin-7-yl)oxy]hexyl}-3-mercaptopropanamide] | 152 to 157
CCOCc1nc2c(N)nc3ccccc3c2n1CC(C)(C)NC(=O)CCC(=O)NN [IRM5, N-{2-[4-Amino-2-(ethoxymethyl)-1H-imidazo[4,5-c]quinolin-1-yl]-1,1-dimethylethyl}-4-hydrazino-4-oxobutanamide] | 203 to 204.6
